One block for each molecule: values may come before it. Positions of bridges follow the written chain, without caps; N, C: chain ends. Residues, ends and D or L forms follow the SMILES beside them.
Key:
Format in all cases: cell-based, human
[1] = test system: hCMEC/D3 cells; test: Uptake of FAM-labeled cyclic peptide into hCMEC/D3 cells (confocal microscopy); settings: 10 µM, 37° C., 10, 30 and 60 minutes
Description: A FAM-labeled synthetic cyclic peptide having the SLSHSPQ (SEQ ID NO: 1) sequence was prepared by requesting Scrum Co., Ltd. A peptide having the sequence of […] (SEQ ID NO: 5), which contains […] (SEQ ID NO: 6), was chemically synthesized, and then a cyclic peptide was formed by forming a disulfide bond between the cysteine residues. Then, a lysine residue was added to the C-terminal and FAM was further bonded to prepare a FAM-labeled cyclic peptide.
The FAM-labeled synthetic cyclic peptide SLSHSPQ (SEQ ID NO: 1) (10 µM) was added to the cells, and incubated on a 37° C. hot plate for 10, 30 and 60 minutes. These were washed with 500 μL of cold PBS three times, and fixed with 4% PFA for 10 minutes. […] (registered trademark) Mounting Medium with DAPI was dropped, then, a cover glass was place thereon to enclose it, and FAM and DAPI were observed by a confocal microscopy. […] From this, it was confirmed that the synthetic cyclic peptide SLSHSPQ (SEQ ID NO: 1) is internalized in the cell.

[2] = test system: hCMEC/D3 cells; test: Influence of monensin on hCMEC/D3 permeation of SLS-phage; settings: monensin-containing medium for 18 hours, concentration-dependent
Description: The medium at the luminal side and the abluminal side was replaced by a monensin-containing medium, and culture was further performed for 18 hours.

[3] = test system: hCMEC/D3 cells; test: Influence of ligands on hCMEC/D3 permeation of SLS-phage
Description: Using the hCMEC/D3 cells, influences by various ligands (vitronectin, fibrinogen, RGD peptide, transferrin) on the BBB permeability of the phage presenting the peptide SLSHSPQ (SEQ ID NO: 1) of the present invention were tested.
In the +vitronectin group, human vitronectin (R&D Systems, Inc.) was added to give 20 μg/mL. In the +fibrinogen group, human fibrinogen (Wako) was added to give 50 μg/mL. In the +RGD group, an RGD peptide (SIGMA) was added to give 100 μM. In the +holo-Tf (transferrin) group, holo-Tf (SIGMA) was added to give 100 μM.

[4] = test system: hCMEC/D3 cells; test: Influence on tight junction (TEER) of hCMEC/D3 cells; settings: 0 to 100 μM, until 48 hours
Description: The synthetic cyclic peptide SLSHSPQ (SEQ ID NO: 1) (0 to 100 μM) before labeling prepared in Example 3 was added to the cells, and they were incubated in a CO2 incubator at 37° C. The influence on tight junction was evaluated by measuring TEER over time until 48 hours later.

[5] = test system: hCMEC/D3 cells; test: Cytotoxicity (cell counting kit-8) in hCMEC/D3 cells; settings: 0 to 100 μM, 24 and 48 hours
Description: The synthetic cyclic peptide SLSHSPQ (SEQ ID NO: 1) (0 to 100 μM) was added to the cells, and incubated in a CO2 incubator at 37° C. The cell viability after 24 and 48 hours was calculated using the cell counting kit-8.

Molecule: FAM-labeled synthetic cyclic peptide SLSHSPQ: Cyclic ACSLSHSPQCGGGS with lysine residue added to the C-terminal and FAM bonded (not fully specified; cyclic; C-terminal lysine added; FAM label)
uptake into hCMEC/D3 cells [1]: taken up into the cells

Molecule: CC[C@@]1([C@@H]2O[C@@H]([C@H]3O[C@@](O)(CO)[C@H](C)C[C@@H]3C)C[C@@H]2C)CC[C@H]([C@]2(C)CC[C@]3(C[C@H](O)[C@@H](C)[C@@H]([C@@H](C)[C@@H](OC)[C@H](C)C(=O)O)O3)O2)O1 [monensin]
effect on hCMEC/D3 cell permeation amount of the SLS-phage [2]: increased

Molecule: fibrinogen
effect on permeation of the SLS-phage ([3]; human fibrinogen 50 μg/mL): did not inhibit

Molecule: RGD peptide
effect on permeation of the SLS-phage ([3]; ligand 100 μM): did not inhibit

Molecule: holo-transferrin
effect on permeation of the SLS-phage ([3]; ligand 100 μM): promoted

influence on tight junction (TEER) [4]: did not reduce the tight junction
Molecule: CC(C)C[C@@H]1NC(=O)[C@H](CO)NC(=O)[C@@H](NC(=O)[C@H](C)N)CSSC[C@@H](C(=O)NCC(=O)NCC(=O)NCC(=O)N[C@@H](CO)C(=O)O)NC(=O)[C@H](CCC(N)=O)NC(=O)[C@@H]2CCCN2C(=O)[C@H](CO)NC(=O)[C@H](Cc2c[nH]cn2)NC(=O)[C@H](CO)NC1=O [synthetic cyclic peptide SLSHSPQ] (H-ACSLSHSPQCGGGS-OH; disulfide 2-10)
cytotoxicity (cell viability) [5]: no cytotoxicity

B1: vitronectin (protein, UniProt P04004 20-478, looked up)
Vitronectin: DQESCKGRCTEGFNVDKKCQCDELCSYYQSCCTDYTAECKPQVTRGDVFTMPEDEYTVYDDGEEKNNATVHEQVGGPSLTSDLQAQSKGNPEQTPVLKPEEEAPAPEVGASKPEGIDSRPETLHPGRPQPPAEEELCSGKPFDAFTDLKNGSLFAFRGQYCYELDEKAVRPGYPKLIRDVWGIEGPIDAAFTRINCQGKTYLFKGSQYWRFEDGVLDPDYPRNISDGFDGIPDNVDAALALPAHSYSGRERVYFFKGKQYWEYQFQHQPSQEECEGSSLSAVFEHFAMMQRDSWEDIFELLFWGRTSAGTRQPQFISRDWHGVPGQVDAAMAGRIYISGMAPRPSLAKKQRFRHRNRKGYRSQRGHSRGRNQNSRRPSRATWLSLFSSEESNLGANNYDDYRMDWLVPATCEPIQSVFFFSGDKYYRVNLRTRRVDTVDPPYPRSIAQYWLGCPAPGHL
notes: human vitronectin (R&D Systems, Inc.)
effect on permeation of the SLS-phage ([3]; human vitronectin 20 μg/mL): inhibited

Source: patent publication US12384816B2, “Blood-brain barrier permeable peptide” (NATIONAL UNIVERSITY CORPORATION KUMAMOTO UNIVERSITY, priority 2018, dated 2025)
